Like-named read-outs stand apart in the source and are kept apart here.
How the values were obtained:
[1] = tested on: rodent mouse model; design: method as in Baartzes et al.; settings: in vivo, no mice were cured; ref Baartzes et al.; cited from earlier work
[2] = tested on: β-hematin formation; assay: NP-40 detergent-mediated β-hematin formation inhibition assay (cell-free); assay type: biochemical; settings: NP-40, pH 4.8, 5 h, 37 °C, read-out: β-hematin formation inhibition IC50 ± SEM
Excerpt: The ability of a compound to inhibit Hz formation can be predicted using the biomimetic cell-free NP40 detergent-mediated β-hematin formation inhibition assay. , This assay mimics the conditions in the acidic DV of the parasite and relies on the binding of pyridine to uncrystallized free heme to detect the inhibition of β-hematin formation using UV–vis spectroscopy (with absorbance measured at 405 nm). , Consequently, the ability of the ferrocenyl quinoline-benzimidazole hybrids (C1–C5) to inhibit β-hematin (synthetic Hz) formation was investigated as a potential mechanism of antiplasmodial action.
The β-hematin formation inhibition assay was modified from the method reported by Sandlin et al. , Stock solutions of the respective test compounds were prepared to 10 mM, in 100% DMSO, with the exception of CQ (used in the salt form, CQDP), which was prepared in Milli-Q water. […] NP-40 is a detergent used to mediate the formation of β-hematin. The solution in column 12 was then serially diluted 2-fold, through to column 2, to give a total of 11 concentrations. Column 1 contained 0 μM of the test compound and thus served as a blank. […] A 178.8 μL aliquot of this hematin suspension was added to 20.0 mL of a 2 M acetate buffer (pH = 4.8) and 100 μL of this solution added to each well. The plates were then covered and incubated for 5 h, at 37 °C. The assay was analyzed using the pyridine-ferrochrome method developed by Ncokazi and Egan. A solution containing water/acetone/2 M HEPES buffer (pH 7.4)/pyridine, in a v/v ratio of 2/2/1/5, was prepared and 32 μL was added to all wells, followed by 60 μL of acetone. The absorbance values were then measured at 405 nm, the results plotted using GraphPad Prism (v5), and the IC50 values obtained using a sigmoidal dose–response curve fitting analysis.

[3] = tested on: K1; settings: previous study; ref Baartzes et al.; read-out: PfIC50 (K1); cited from earlier work
[4] = tested on: CHO cell line
Protocol: (§1) The samples were tested over 48 h against the Chinese hamster ovarian (CHO) cell line to determine general cytotoxicity. […] Quantitative assessment of toxic activity in vitro was determined via the MTT assay using the method described. Cell viability was determined colorimetrically using the breakdown of a dye by enzymes of the electron transport chain, taking place in the mitochondria of metabolically active living cells, as a marker for survival.
(§2) Compounds were tested in triplicate on a single occasion against these cells using the MTT assay. The test samples were prepared to a 10 mM stock solution, in 100% DMSO, and stored at −20 °C until use. Samples were tested as a suspension if not completely dissolved. Further dilutions to the desired starting concentration were freshly prepared in growth media at the start of the experiment.
(§3) Cells were plated to a density of 10^5 cells/well in 96-well plates and allowed to attach for 24 h. […] After 44 h MTT was added, and the plates were read 4 h later at 540 nm on a spectrophotometer following the addition of 100 μL of DMSO and gentle plate-shaking to solubilize and visualize the dye. Survival was plotted against concentration, and the IC50 values were obtained using a nonlinear dose–response curve fitting analysis via the Dotmatics software platform.

[5] = tested on: whole-cell NF54 parasites
Protocol: However, unlike the cell-free assay, the heme fractionation assay isolates both the heme and Hz components via a series of solubilization and separation steps. Furthermore, the absolute amount of each heme species per cell is calculated using the UV–vis data normalized to the flow cytometry parasite cell count.
The IC50 was previously determined using the pLDH assay. Following incubation for 28–32 h, to ensure progression to the trophozoite stage, parasitized red blood cells were saponin lysed to obtain isolated trophozoites. To determine the amount of heme and hemozoin, the trophozoites were then exposed to a series of cellular fractionation steps to successively liberate each heme species. The UV–visible spectra of these fractions were recorded between 400 and 415 nm on a multiwell plate reader. The percentage of each heme species was determined from the absorbance value of the Soret band of the pyridyl heme complex. To determine the absolute levels of each species, an aliquot of the isolated trophozoites was spiked with Trucount beads and stained with SYBR Green. These were run on a flow cytometer to determine absolute counts, which could in turn be used to calculate the absolute levels of each species per cell. The total heme in each of these samples was quantified using a standard curve. GraphPad Prism (v5) was used to analyze the final data set and perform the significance tests.

[6] = tested on: CHO cell line; assay: Cytotoxicity, MTT assay
Protocol: as §1, §2, §3

Cc1ccc2c(c1)nc(-[c-]1cccc1)n2CCCNc1ccnc2cc(Cl)ccc12.[Fe+2].c1cc[cH-]c1 [Complex C1, 7-chloro-N-(3-(5-(methyl)-2-ferrocenyl-1H-benzo[d]imidazole-1-yl)propyl)quinolin-4-amine]
Reduction in parasitemia [1]: 92% | IC50 [2]: 7.26 µM | IC50 [3]: 0.283 µM | CC50 [4]: 43.7 ± 2.5 µM

Cc1ccc2c(c1)nc(-[c-]1cccc1CN(C)C)n2CCCNc1ccnc2cc(Cl)ccc12.[Fe+2].c1cc[cH-]c1 (stereo not drawn) [Complex C3, 7-Chloro-N-(3-(5-methyl-2-(2-N,N-dimethylaminomethyl)ferrocenyl-1H-benzo[d]-imidazole-1-yl)propyl) Quinoline-4-amine]
IC50 [2]: 5.42 µM | Hemozoin (Hz) Fe level per cell versus untreated control ([5]; NF54 parasites at 3× IC50): more than five times lower | Free heme level per cell ([5]; NF54 parasites, 0.5–1.5× the IC50 value): steadily increased | CC50 ([6]; read-out: CC50 (CHO) ± SEM, MTT, 48 h, technical triplicate on a single occasion): 6.1 ± 1.2 µM | SI (CC50 CHO/IC50 NF54) ([6]; selectivity index): 244.4

From publication PMC12344774, “Ferrocenyl Quinoline-Benzimidazole Hybrids: A Multistage Strategy to Combat Drug-Resistant Malaria” (Inorganic Chemistry, 2025)
